This note sets out measurements from patent publication US12071436B2, “Anti-parasitic compounds and uses thereof” (Memorial Sloan-Kettering Cancer Center, priority 2016, dated 2024).

Like-named read-outs stand apart in the source and are kept apart here.

One data set deals with P. falciparum Dd2. Nature of the data set: Anti-plasmodial growth inhibition, SYBR green I-based DNA quantification. The format is cell-based. As to conditions: Plasmodium falciparum, 72 h incubation, n=3. As to the method:
(§1) Select compounds described herein were evaluated for structure-activity analyses for anti-plasmodial activity in vitro. For Dd2 EC50 (M), calculations were for n=3. For HepG2 EC50 (M), calculations were for n=1. For the human microsomal stability determination, t was 60 minutes.
Different dilutions of the compound in RPMI 1640 (Life Technologies) from a stock of 10 mM in dimethyl sulfoxide (DMSO) were added to the culture at a 1% parasitemia and 2% hematocrit in 96-well black plates (Santa Cruz Biotechnology). Maximum DMSO concentration in the culture never exceeded 0.25%. Chloroquine at 1 μM was used as a positive control to determine the baseline value. Following 72 h incubation at 37° C., the ability of the compounds to inhibit growth of the parasite was determined by a SYBR green I-based DNA quantification assay (See Bennett et al., 2004, Chemother. 48, 1807-1810; see also Johnson et al., 2007, Antimicrob. Agents. Chemother. 51, 1926-1933; Smilkstein et al., 2004, Antimicrob. Agents. Chemother. 48, 1803-1806). EC50 was calculated (n=3) from a dose response curve that was generated from a concentration range of 0-20 μM using GraphPad Prism v5.0.

Data set [1] concerns HepG2 human hepatoma cells. Nature of the data set: HepG2 cytotoxicity, MTS cell proliferation assay. The format is cell-based. The settings on record: 48 h, n=1. As to the method:
as §1
Selected compounds were evaluated for cytotoxicity using HepG2 human hepatoma cells. A 384-well clear bottom plate was seeded with 2,500 cells/well and incubated for 24 h. Serial dilutions of the compound (were added to the plate and plates were incubated for an additional 48 h. Viability of cells were assessed by MTS [(3-(4,5-dimethylthiazol-2-yl)-5-(3-carboxymethoxyphenyl)-2-(4-sulfophenyl)-2H-tetrazolium) cell proliferation assay (CellTiter 96® Aqueous non-radioactive cell proliferation assay, Promega) (See Cory et al., Cancer Communications, 3, 1991, p. 207-212).
For orientation: Tetrazolium dyes change colour on reduction, which living cells bring about.

Data set [2] in a line: Plasma pharmacokinetics and liver distribution study in female BALB/c mice. The format is in vivo, mouse. The settings on record: for AUC(0-inf) / Tmax / half-life / Cmax: female, BALB/c, mouse. As for the experimental part: A plasma pharmacokinetics and liver distribution study of selected compounds, including Pyrrolopyridine-008 (2015-foleyc-216), Pyrrolopyridine-D20-ent (2015-foleyc-217), and Pyrrolopyridine-M03 (2015-foleyc-218), in female BALB/c mice was conducted following a single intraperitoneal and oral administration. […] The blood samples were collected from a set of […] mice at each time point in labeled micro centrifuge tube containing K2EDTA as anticoagulant. Plasma samples were separated by centrifugation at 4000 rpm for 10 min and stored below −70° C. until bioanalysis. After collection of blood sample, animals were humanely euthanized by carbon dioxide asphyxiation to collect liver from Group 1 and Group 2 at all the time points. The collected tissues were rinsed in PBS and were homogenized with nine times of liver weight in ice cold phosphate buffer saline (pH 7.4) and stored below −70° C. until bio-analysis. Total homogenate volume was ten times the tissue weight. All samples were processed for analysis by protein precipitation using acetonitrile and analyzed with fit-for-purpose LC-MS/MS method (LLOQ: 2.01 ng/mL for plasma and 50.30 ng/g for liver). Pharmacokinetic parameters were calculated using the non-compartmental analysis tool of Phoenix WinNonlin® (Version 6.3).

Where [3] appears, read: ip, Dose: 100 mg/kg, liver, read-out: PK (ip, plasma/liver) AUCinf, liver.
The mark [4] stands for this setting: ip, Dose: 100 mg/kg, liver, read-out: PK (ip, plasma/liver) Tmax, liver.
The mark [5] stands for this setting: ip, Dose: 100 mg/kg, liver, read-out: PK (ip, plasma/liver) t1/2, liver (converted).
Where [6] appears, read: ip, Dose: 100 mg/kg, plasma, read-out: PK (ip, plasma/liver) AUCinf, plasma.
The mark [7] stands for this setting: ip, Dose: 100 mg/kg, plasma, read-out: PK (ip, plasma/liver) Cmax, plasma.
Where [8] appears, read: ip, Dose: 100 mg/kg, plasma, read-out: PK (ip, plasma/liver) Tmax, plasma.
[9] abbreviates: ip, Dose: 100 mg/kg, plasma, read-out: PK (ip, plasma/liver) t1/2, plasma (converted).
Where [10] appears, read: po, Dose: 100 mg/kg, liver, read-out: PK (po, plasma/liver) Area under the curve (AUCinf), liver.
The mark [11] stands for this setting: po, Dose: 100 mg/kg, liver, read-out: PK (po, plasma/liver) Tmax, liver.
The mark [12] stands for this setting: po, Dose: 100 mg/kg, liver, read-out: PK (po, plasma/liver) t1/2, liver (converted).
Where [13] appears, read: po, Dose: 100 mg/kg, plasma, read-out: PK (po, plasma/liver) Area under the curve (AUCinf), plasma.
The mark [14] stands for this setting: po, Dose: 100 mg/kg, plasma, read-out: PK (po, plasma/liver) Cmax, plasma.
[15] abbreviates: po, Dose: 100 mg/kg, plasma, read-out: PK (po, plasma/liver) Tmax, plasma.
The mark [16] stands for this setting: po, Dose: 100 mg/kg, plasma, read-out: PK (po, plasma/liver) t1/2, plasma (converted).

Consider `CC(C)(C)[S@@+]([O-])N1Cc2cc(C(=O)NCc3ccc4c(c3)OCO4)nc(-c3cccc(-c4cccnc4)c3)c2C1` [2015-foleyc-212, (R)-N-(benzo[d][1,3]dioxol-5-ylmethyl)-2-(tert-butylsulfinyl)-4-(3-(pyridin-3-yl)phenyl)-2,3-dihydro-1H-pyrrolo[3,4-c]pyridine-6-carboxamide], for which the values for the EC50 (with P. falciparum Dd2; in data set [1]) were more than 25 µM and more than 100 µM, respectively.
On to `CC(C)(C)[S@@+]([O-])N1Cc2cc(C(=O)NCc3ccccc3F)nc(-c3cccc(-c4cccnc4)c3)c2C1` [2015-foleyc-213, (R)-2-(tert-butylsulfinyl)-N-(2-fluorobenzyl)-4-(3-(pyridin-3-yl)phenyl)-2,3-dihydro-1H-pyrrolo[3,4-c]pyridine-6-carboxamide], for which the EC50 (in general, the midpoint of the concentration-response curve) in the data set with P. falciparum Dd2 is more than 25 µM; in data set [1], more than 100 µM.
For `CC(C)(C)[S@@+]([O-])N1Cc2cc(C(=O)NCc3ccc4c(c3)OCO4)nc(-c3cccc(-c4cc5ccccc5o4)c3)c2[C@H]1CCO` [2015-foleyc-219, (R)-N-(benzo[d][1,3]dioxol-5-ylmethyl)-4-(3-(benzofuran-2-yl)phenyl)-2-((R)-tert-butylsulfinyl)-3-(2-hydroxyethyl)-2,3-dihydro-1H-pyrrolo[3,4-c]pyridine-6-carboxamide], the figures for the EC50 (in the data set on P. falciparum Dd2; in data set [1]) were 1.39 ± 0.13 µM and more than 100 µM, respectively.
Consider `CC(C)(C)[S@@+]([O-])N1Cc2cc(C(=O)NCc3ccccc3F)nc(-c3cccc(-c4cc5ccccc5o4)c3)c2[C@H]1CCO` [2015-foleyc-220, (R)-4-(3-(benzofuran-2-yl)phenyl)-2-((R)-tert-butylsulfinyl)-N-(2-fluorobenzyl)-3-(2-hydroxyethyl)-2,3-dihydro-1H-pyrrolo[3,4-c]pyridine-6-carboxamide], for which the EC50 with P. falciparum Dd2 was more than 25 µM; in data set [1], more than 100 µM.
Take `CC(C)(C)[S@@+]([O-])N1Cc2cc(C(=O)NCC(F)(F)F)nc(-c3cccc(-c4cc5ccccc5o4)c3)c2[C@H]1CCO` [2015-foleyc-226, (R)-4-(3-(benzofuran-2-yl)phenyl)-2-((R)-tert-butylsulfinyl)-3-(2-hydroxyethyl)-N-(2,2,2-trifluoroethyl)-2,3-dihydro-1H-pyrrolo[3,4-c]pyridine-6-carboxamide]: the EC50 is more than 25 µM in the data set with P. falciparum Dd2 and more than 100 µM in data set [1].
For the compound `CC(C)NC(=O)N1Cc2cc(C(=O)NCC(F)(F)F)nc(-c3cccc(-c4cc5ccccc5o4)c3)c2[C@H]1CCO` [drawing 328], the “Relative Bioavailability, Frel (AUCinf po / AUCinf ip)” value in data set [2] (Dose: 50 mg/kg) stood at 57%. Also, the AUC(0-inf) in data set [2] (ip, Dose: 50 mg/kg, liver, read-out: PK (ip, plasma/liver) AUCinf, liver) was determined as 186 µM·h; in data set [2] (ip, Dose: 50 mg/kg, plasma, read-out: PK (ip, plasma/liver) AUCinf, plasma), 52.7 µM·h; in data set [2] (po, Dose: 50 mg/kg, liver, read-out: PK (po, plasma/liver) Area under the curve (AUCinf), liver), 108 µM·h; in data set [2] (po, Dose: 50 mg/kg, plasma, read-out: PK (po, plasma/liver) Area under the curve (AUCinf), plasma) it was 29.9 µM·h. Moreover, the Tmax in data set [2] (ip, Dose: 50 mg/kg, liver, read-out: PK (ip, plasma/liver) Tmax, liver) is 0.1 h; in data set [2] (ip, Dose: 50 mg/kg, plasma, read-out: PK (ip, plasma/liver) Tmax, plasma) it was 1 h; in data set [2] (po, Dose: 50 mg/kg, liver, read-out: PK (po, plasma/liver) Tmax, liver), 0.25 h; in data set [2] (po, Dose: 50 mg/kg, plasma, read-out: PK (po, plasma/liver) Tmax, plasma) it was 0.25 h. The half-life was 2.2 h in data set [2] (ip, Dose: 50 mg/kg, liver, read-out: PK (ip, plasma/liver) t1/2, liver (converted)); 1.2 h in data set [2] (ip, Dose: 50 mg/kg, plasma, read-out: PK (ip, plasma/liver) t1/2, plasma (converted)); 3.1 h in data set [2] (po, Dose: 50 mg/kg, liver, read-out: PK (po, plasma/liver) t1/2, liver (converted)); 8.2 h in data set [2] (po, Dose: 50 mg/kg, plasma, read-out: PK (po, plasma/liver) t1/2, plasma (converted)). In addition, the Cmax in data set [2] (ip, Dose: 50 mg/kg, plasma, read-out: PK (ip, plasma/liver) Cmax, plasma) amounted to 14 µM; in data set [2] (po, Dose: 50 mg/kg, plasma, read-out: PK (po, plasma/liver) Cmax, plasma), 10.9 µM. For the same compound, in data set [2] (ip, Dose: 50 mg/kg, liver), the “PK (ip, plasma/liver) Cmax, liver” value turned out to be 58.6 µM. The “PK (po, plasma/liver) Cmax, liver” value in data set [2] (po, Dose: 50 mg/kg, liver) was 53.8 µM.
As for `CC(C)(C)[S@@+]([O-])N1Cc2cc(C(=O)NCc3ccc4c(c3)OCO4)nc(-c3cccc(-c4cccnc4)c3)c2[C@H]1CCO` [drawing 329], the “Relative Bioavailability, Frel (AUCinf po / AUCinf ip)” value in data set [2] (Dose: 100 mg/kg) is 49%. Besides, the AUC(0-inf) in data set [2] (setting [3]) was 667 µM·h; in data set [2] (setting [6]), 158 µM·h; in data set [2] (setting [10]), 238 µM·h; in data set [2] (setting [13]) it was 77.1 µM·h. Further, the Tmax in data set [2] (setting [4]) was determined as 0.5 h; in data set [2] (setting [8]) it was 0.5 h; in data set [2] (setting [11]), 4 h; in data set [2] (setting [15]), 1 h. For the same compound, the half-life was 3.5 h in data set [2] (setting [5]), 2.4 h in data set [2] (setting [9]), 16.9 h in data set [2] (setting [12]) and 1.1 h in data set [2] (setting [16]). The Cmax in data set [2] (setting [7]) was 33.4 µM; in data set [2] (setting [14]), 27.6 µM. In addition, in data set [2] (ip, Dose: 100 mg/kg, liver), the “PK (ip, plasma/liver) Cmax, liver” value was 87.6 µM. For the same compound, the “PK (po, plasma/liver) Cmax, liver” value in data set [2] (po, Dose: 100 mg/kg, liver) was 39.6 µM.
For the compound `CC(C)(C)[S@@+]([O-])N1Cc2cc(C(=O)NCc3ccccc3F)nc(-c3cccc(-c4cccnc4)c3)c2[C@H]1CCO` [drawing 330], the “Relative Bioavailability, Frel (AUCinf po / AUCinf ip)” value in data set [2] (Dose: 100 mg/kg) is 22%. In addition, the AUC(0-inf) in data set [2] (setting [3]) was 306 µM·h; in data set [2] (setting [6]), 168 µM·h; in data set [2] (setting [10]) it was 125 µM·h; in data set [2] (setting [13]), 36.7 µM·h. In addition, the Tmax is 0.25 h in data set [2] (setting [4]), 1 h in data set [2] (setting [8]), 0.5 h in data set [2] (setting [11]) and 0.5 h in data set [2] (setting [15]). Further, the half-life was 4.6 h in data set [2] (setting [5]), 1.9 h in data set [2] (setting [9]), 6.4 h in data set [2] (setting [12]) and 2.1 h in data set [2] (setting [16]). Besides, the Cmax in data set [2] (setting [7]) is 72.6 µM; in data set [2] (setting [14]), 56.4 µM. Further, the “PK (ip, plasma/liver) Cmax, liver” value in data set [2] (ip, Dose: 100 mg/kg, liver) amounted to 111.3 µM. Also, the “PK (po, plasma/liver) Cmax, liver” value in data set [2] (po, Dose: 100 mg/kg, liver) is 49.2 µM.
`CC(C)(C)[S@+]([O-])N1Cc2cc(C(=O)NCc3ccc4c(c3)OCO4)nc(-c3cccc(-c4cccnc4)c3)c2[C@@H]1CCO` [ent-Tan003-008]: the EC50 in the data set on P. falciparum Dd2 amounted to 0.86 ± 0.08 µM.
